Data taken from US20220304999A1, “REBAMIPIDE FOR USE IN PREVENTION AND/OR TREATMENT OF ARTERIAL STIFFNESS” (SQUARE POWER LTD., priority 2019, published 2022).

Experiment: Carotid to femoral pulse wave velocity (cfPWV) study in patients suffering from arterial stiffness
Format: in vivo, human
From the text: Aging of cardiovascular system is associated with worsening of arterial cushion function resulting in higher pulse pressure (systolic-diastolic amplitude). Pulse wave velocity (PWV), i.e. velocity at which the blood pressure pulse propagates through the circulatory system, is the gold standard method for arterial stiffness quantification. It can be readily measured non-invasively in humans, is highly reproducible, and predicts future cardiovascular events and all-cause mortality independent of conventional cardiovascular risk factors.
Pulse wave travels along the arteries at a velocity rate, which varies according to wall elasticity: the less elastic the wall, the higher the velocity of PW propagation. PWV measures the time of travel of the pressure wave over a known distance and is calculated as the distance between the two positions of the pulse transducer divided by the time delay measured between pressure upstroke at each site.
To study the effect of rebamipide on arteries, a small study on patients suffering from arterial stiffness was performed. […] Carotid to femoral PWV (cfPWV) was measured in both groups at 0, 3, 6, 9 and 12 months.

For O=C(NC(Cc1cc(=O)[nH]c2ccccc12)C(=O)O)c1ccc(Cl)cc1 (centres unmarked) [rebamipide, 2-[(4-chlorobenzoyl)amino]-3-(2-oxo-1H-quinolin-4-yl)propanoic acid], the “arterial stiffness (carotid to femoral PWV)” value (patients with PWV above normal for age, no atherosclerosis or hyperlipidemia, rebamipide 200 mg three times a day for 12 months vs placebo, cfPWV at 0, 3, 6, 9, 12 months) was “gradually decreasing” and the “difference in arterial stiffness between rebamipide and placebo groups” value (rebamipide 200 mg three times a day vs placebo, 12 months) was “reached statistical significance”.
